# According to patent US20160220602A1, “USE OF CHINESE MEDICINE PREPARATION IN PREPARING DRUG FOR PREVENTING AND/OR TREATING CROHN'S DISEASE” (TASLY PHARMACEUTICAL GROUP CO., LTD., priority 2013, published 2016):
# Tests used:
# [1] = test system: zebra fish Crohn's disease model established with TNBS; assay: Efficacy in zebra fish Crohn's disease model (intestinal area, diameter, therapeutic ratio); format: in vivo; details: 10 μM in fish farm water, 48 hours
# Procedure: Meanwhile, the positive control group, blank control group, Crohn's disease model group and excipient control group were set in the research. In the positive control group, the prednisolone was finally at concentration of 10 μM in fish farm water. The enema excipient disclosed in Chinese patent (CN 1192787 C) was used in the excipient control group, including adding PEG-400 solutions containing tragacanth and potassium sorbate into the fish farm water in the volume ratio of 0.3%. Wherein, the PEG-400 solution was prepared following method: adding 1.5 g of tragacanth and 2 g of potassium sorbate (particle size of 150 μm) into 28ml PEG.
# 30 zebra fish were randomly given to each group. […] The image analysis software was used to analyze the pictures. Meanwhile, intestine mucosal thickness, intestinal diameter and intestinal area were observed carefully under the microscope and the intestinal diameter and intestinal area analyzed quantitatively. Therapeutic ratio of tested drug in zebra fish Crohn's disease was calculated in accordance with the intestinal area in each group. The calculation formula was present as follows: […]
# Variance analysis was used for comparison among many groups and Dunnett's T test for comparison between two groups.
# [2] = test system: zebra fish Crohn's disease model; assay: Histopathology of intestinal tissue in zebra fish Crohn's disease model (H&E); format: in vivo; details: 10 μM in fish farm water
# [3] = test system: transgenic neutrophil fluorescent zebra fish Crohn's disease model; details: 10 μM in fish farm water
compound,measurement,setting,value
C[C@]12C=CC(=O)C=C1CC[C@@H]1[C@@H]2[C@@H](O)C[C@@]2(C)[C@H]1CC[C@]2(O)C(=O)CO [prednisolone],Intestinal area (Mean ± SD),[1],48646 ± 4685
same,"Intestinal area, Ratio of blank control group (Mean ± SE)",[1],1.31 ± 0.04
same,Intestinal diameter (Mean ± SD),[1],137 ± 11
same,"Intestinal diameter, Ratio of blank control group (Mean ± SE)",[1],1.02 ± 0.03
same,Therapeutic ratio (%) (Mean ± SE),[1]; from intestinal area,74±3.40%
same,Intestinal histopathology (H&E),[2],the intestinal mucosal histopathology was improved obviously
same,Inflammation regression ratio (%) (Mean ± SE),[3],81±2.48%
same,Number of neutrophil (Mean ± SD),[3],20 ± 1
same,"Number of neutrophil, Ratio of the blank control group (Mean ± SE)",[3],1.22 ± 0.03
